Bounds are passed on as bounds.

Assay [1] has as its system LoVo. As to the kind of experiment: Cytotoxicity assay (SRB), LoVo. To be noted: Homo sapiens, LoVo, 72 h, LoVo cells, 3 days, SRB; read-out: In Vitro Cellular Activity IC50 LOVO. It counts as cell-based. The essentials: (§1)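 Cells seeded overnight at 37 °C, 7% CO2 (BT474 12000, HCT-116 4000, LoVo and MCF-7 6000 cells/well) in RPMI 1640 with 5% FBS, then exposed to compound dilutions for 3 days (BT474 6 days). Survival versus untreated controls by TCA fixation and SRB staining, absorbance 540 nm.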

For assay [2], the target named is T1, cyclin B/CDK1 enzyme (Homo sapiens, UniProt P06493).
T1 construct: purchased New England BioLabs; host or cells: Sf9 insect cells, recombinant baculovirus
As to the kind of experiment: CDK1 ELISA kinase assay (phospho-Rb ser 795 detection). It counts as biochemical. To be noted: In Vitro Enzyme Assay, cyclin B/CDK1, read-out: CDK1 IC50. In outline: (§2)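 GST-Rb C-terminal fragment coated on wells; kinase reaction: 200 μM ATP, 0.5 mg/ml BSA, HEPES pH 7.5, 10 mM MgCl2, baculovirus/Sf9 cyclin-CDK, 30° C, 1 h. Readout anti-phospho-Rb Ser795, HRP, TMB, A450. Test compound 10 ug/ml final.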

Assay [3] concerns HCT-116. The assay is described as follows: Cytotoxicity assay (SRB), HCT-116. The format is cell-based. The settings on record: Homo sapiens, HCT-116, 72 h, HCT116 cells, 3 days, SRB; read-out: In Vitro Cellular Activity IC50 HCT116. The essentials:
as §1

Assay [4] has as its target T2, cyclin D1/cdk 4 enzyme (Homo sapiens, UniProt P11802).
T2 construct: made in house; host or cells: Sf9 insect cells, recombinant baculovirus
As to the kind of experiment: CDK4 ELISA kinase assay (phospho-Rb ser 795 detection). It counts as biochemical. To be noted: In Vitro Enzyme Assay, cyclin D1/cdk 4, read-out: CDK4 IC50. The essentials:
as §2

The target in assay [5] is T3, cyclin E/CDK2 enzyme (Homo sapiens, UniProt P24941).
T3 construct: made in house; host or cells: Sf9 insect cells, recombinant baculovirus
As to the kind of experiment: CDK2 ELISA kinase assay (phospho-Rb ser 795 detection). It counts as biochemical. The settings on record: In Vitro Enzyme Assay, cyclin E/CDK2, read-out: CDK2 IC50. The essentials: as §2

Assay [6] concerns BT474. As to the kind of experiment: Cytotoxicity assay (SRB), BT474. It counts as cell-based. The settings on record: Homo sapiens, BT-474, 144 h, BT474 cells, 6 days, SRB; read-out: In Vitro Cellular Activity IC50 BT474. The essentials:
as §1

Assay [7] has as its system MCF-7. As to the kind of experiment: Cytotoxicity assay (SRB), MCF-7. The settings on record: Homo sapiens, MCF7, 72 h, MCF-7 cells, 3 days, SRB; read-out: In Vitro Cellular Activity IC50 MCF-7. The format is cell-based. In outline: as §1

T1 sequence (P06493 whole entry): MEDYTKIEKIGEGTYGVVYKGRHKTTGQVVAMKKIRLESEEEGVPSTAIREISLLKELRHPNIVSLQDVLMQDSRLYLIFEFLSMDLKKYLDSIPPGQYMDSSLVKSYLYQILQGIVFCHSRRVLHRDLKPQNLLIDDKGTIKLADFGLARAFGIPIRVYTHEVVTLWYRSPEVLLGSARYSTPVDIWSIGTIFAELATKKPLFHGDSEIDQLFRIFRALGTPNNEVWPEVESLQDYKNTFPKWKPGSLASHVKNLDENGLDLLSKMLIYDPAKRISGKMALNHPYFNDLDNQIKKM
T1 sequence (P14635 whole entry partner): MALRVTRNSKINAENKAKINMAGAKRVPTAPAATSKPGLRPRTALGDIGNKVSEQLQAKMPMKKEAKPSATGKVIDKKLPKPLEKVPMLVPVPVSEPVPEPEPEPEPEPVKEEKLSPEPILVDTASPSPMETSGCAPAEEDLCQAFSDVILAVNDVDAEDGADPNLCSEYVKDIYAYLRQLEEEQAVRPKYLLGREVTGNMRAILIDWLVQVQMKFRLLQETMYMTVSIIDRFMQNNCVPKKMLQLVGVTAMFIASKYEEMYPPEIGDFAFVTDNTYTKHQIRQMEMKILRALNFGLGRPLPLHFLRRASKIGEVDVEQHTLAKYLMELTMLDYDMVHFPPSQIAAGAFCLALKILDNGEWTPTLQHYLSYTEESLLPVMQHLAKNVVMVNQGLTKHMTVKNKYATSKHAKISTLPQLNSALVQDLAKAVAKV
T2 sequence (P11802 whole entry, species assumed): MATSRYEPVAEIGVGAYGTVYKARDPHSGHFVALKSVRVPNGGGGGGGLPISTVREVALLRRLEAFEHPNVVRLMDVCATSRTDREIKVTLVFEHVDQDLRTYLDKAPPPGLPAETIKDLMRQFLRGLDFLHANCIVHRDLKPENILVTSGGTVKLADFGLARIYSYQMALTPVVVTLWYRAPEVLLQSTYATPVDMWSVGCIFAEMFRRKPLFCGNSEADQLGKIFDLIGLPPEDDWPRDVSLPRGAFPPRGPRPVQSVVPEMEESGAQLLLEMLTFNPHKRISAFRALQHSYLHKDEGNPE
T2 sequence (P24385 whole entry partner, species assumed): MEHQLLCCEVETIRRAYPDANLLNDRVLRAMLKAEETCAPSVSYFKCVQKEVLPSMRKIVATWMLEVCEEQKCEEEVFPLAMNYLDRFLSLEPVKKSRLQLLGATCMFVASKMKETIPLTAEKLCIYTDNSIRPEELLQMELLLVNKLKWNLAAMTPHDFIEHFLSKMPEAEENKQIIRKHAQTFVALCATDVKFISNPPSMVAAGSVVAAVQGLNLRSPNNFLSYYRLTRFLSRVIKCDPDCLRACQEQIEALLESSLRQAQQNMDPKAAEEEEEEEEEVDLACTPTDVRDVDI

For the molecule `O=C1NC(=O)c2ccccc2/C1=C/Nc1ccc(CN2CCCC2)cc1` [Example 576, 4-[(4-Pyrrolidin-1-ylmethyl-phenylamino)-methylene]-4H-isoquinoline-1,3-dione], the IC50 in assay [1] was found to be 19.1 µM; in assay [2], 13.8 µM; in assay [3], 6.3 µM; in assay [4], 7.5 µM; in assay [5], 39.8 µM; in assay [6] it was 7.4 µM. The IC50 in assay [7] was 7.6 µM.

Turning to `CN(Cc1ccc(NC=C2C(=O)NC(=O)c3ccccc32)cc1)C1CCCCC1` [Example 577, 4-({4-[(Cyclohexyl-methyl-amino)-methyl]-phenylamino}-methylene)-4H-isoquinoline-1,3-dione], the IC50 was 14.4 µM in assay [1]; 17.7 µM in assay [2]; 9.6 µM in assay [3]; 34 µM in assay [4]; > 50 µM in assay [5]; 24.5 µM in assay [6]. Moreover, the IC50 in assay [7] was determined as 20.1 µM.

Consider `O=C1NC(=O)c2ccccc2C1=CNCc1ccc(NS(=O)(=O)CC(F)(F)F)cc1` [Example 591, 2,2,2-Trifluoro-ethanesulfonic acid (4{[(1,3-dioxo-2,3-dihydro-1H-isoquinolin-4-ylidenemethyl)-amino]-methyl}-phenyl)-amide], for which the IC50 in assay [1] was > 50 µM; in assay [2], 20.3 µM; in assay [3] it was 41.5 µM; in assay [4], 23.2 µM; in assay [5] it was 25.4 µM; in assay [6] it was 36.4 µM. For the same molecule, the IC50 in assay [7] stood at 40 µM.

In the case of `CC(C)CC(=O)Nc1ccc(CN/C=C2\C(=O)NC(=O)c3ccccc32)cc1` [Example 593, N-(4{[(1,3-Dioxo-2,3-dihydro-1H-isoquinolin-4-ylidenemethyl)-amino]-methyl}-phenyl)-3-methyl-butyramide], the IC50 is 35.8 µM in assay [1]; 44.5 µM in assay [2]; 13.8 µM in assay [3]; > 50 µM in assay [4]; > 50 µM in assay [5]; 26.6 µM in assay [6]. Moreover, the IC50 in assay [7] was determined as 25.9 µM.

As for `CCN(CC)c1ccc2c(c1)C(=CNCc1ccc(O)c(O)c1)C(=O)NC2=O` [Example 608, 6-Diethylamino-4-[(3,4-dihydroxy-benzylamino)-methylene]-4H-isoquinoline-1,3-dione], the IC50 came out at 10.4 µM in assay [1]; 18.9 µM in assay [2]; 11.4 µM in assay [3]; 0.2 µM in assay [4]; 6.7 µM in assay [5]; 11.6 µM in assay [6]. Besides, in assay [7], the IC50 stood at 10.7 µM.

Consider `O=C1NC(=O)c2ccc(N3CCCC3)cc2/C1=C/NCc1ccc(O)c(O)c1` [Example 609, 4-[(3,4-Dihydroxy-benzylamino)-methylene]-6-pyrrolidin-1-yl-4H-isoquinoline-1,3-dione], for which the IC50 is 19.1 µM in assay [1]; 11.8 µM in assay [2]; 30.6 µM in assay [3]; 0.02 µM in assay [4]; 12.1 µM in assay [5]; 18.3 µM in assay [6]. Moreover, the IC50 in assay [7] came to 13.6 µM.

For `O=C1NC(=O)c2ccc(N3Cc4ccccc4C3)cc2C1=CNCc1ccc(O)c(O)c1` [Example 610, 6-(1,3-Dihydro-isoindol-2-yl)-4-[(3,4-dihydroxy-benzylamino)-methylene]-4H-isoquinoline-1,3-dione], the IC50 stood at 11.1 µM in assay [1]; 3.5 µM in assay [2]; 9.9 µM in assay [3]; 0.38 µM in assay [4]; 2.5 µM in assay [5]; 27 µM in assay [6]. Also, the half-maximal inhibitory concentration (IC50) in assay [7] is 12.2 µM.

On to `O=C1NC(=O)c2ccc(N(CCC(F)(F)F)CCC(F)(F)F)cc2C1=CNCc1ccc(O)c(O)c1` [Example 611, 6-[Bis-(3,3,3-trifluoro-propyl)-amino]-4-[(3,4-dihydroxy-benzylamino)-methylene]-4H-isoquinoline-1,3-dione], for which the IC50 in assay [1] came out at 16.1 µM; in assay [2], 18.1 µM; in assay [3] it was 14.1 µM; in assay [4] it was 12.9 µM; in assay [5] it was 18.1 µM; in assay [6], 23.6 µM. Moreover, the IC50 in assay [7] stood at 13.2 µM.

(Values after US7713994B2 (Wyeth LLC, priority 2005, dated 2010).)
